The record followed here is US12577245B2, “Sulfonyl benzamide derivatives as Bcl-2 inhibitors” (ASCENTAGE PHARMA (SUZHOU) CO., LTD., priority 2021, dated 2026).

Where two headings read alike, the source gives them in different places.

The subject of one experiment is MV-4-11 cells. Kind of experiment: CCK-8 cell viability assay in MV-4-11 cells. The following applies: Homo sapiens, MV4-11, 72 h, 10% FBS, 3 days. In kind it is cell-based. In a few lines: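 MV-4-11 cells (20000/well) were exposed to serially diluted compound for 3 days at 37 °C. Viability was then measured with CCK-8 (1–4 h, absorbance 450 nm). IC50 was derived from readings normalized to vehicle.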
For orientation: Tetrazolium dyes change colour on reduction, which living cells bring about.

Another experiment concerns RS4; 11Bcl-2-G101V cells. Kind of experiment: CellTiter-Glo (CTG) cell viability assay in RS4;11-Bcl-2-G101V cells. In kind it is cell-based. The following applies: 72 h, 10% FBS, 3 days. In a few lines: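 Engineered RS4;11 lines carrying Bcl-2 mutants, 10000 cells/well in RPMI-1640 with 10% FBS, exposed to serially diluted compound for 3 days at 37 °C, 5% CO2. Viability read by CellTiter-Glo luminescence, normalized to vehicle; IC50 calculated.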
A general note: In ATP-based viability assays light output follows the ATP content of the culture.

The next experiment deals with Bcl-2 WT (Homo sapiens, UniProt P10415). Kind of experiment: Bcl-2 WT inhibition, fluorescence polarization (Flu-BIM tracer) binding assay. (In general: Polarisation of emitted light reports the rotation of a fluorescent probe.)
Bcl-2 WT, sequence (P10415 whole entry): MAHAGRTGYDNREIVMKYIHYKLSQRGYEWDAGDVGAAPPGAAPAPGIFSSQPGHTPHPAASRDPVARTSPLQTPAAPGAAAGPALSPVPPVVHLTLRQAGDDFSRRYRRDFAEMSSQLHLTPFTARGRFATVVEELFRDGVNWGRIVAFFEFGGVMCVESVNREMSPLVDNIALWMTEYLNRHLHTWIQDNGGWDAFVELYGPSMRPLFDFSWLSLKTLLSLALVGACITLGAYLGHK
[1] abbreviates: FP, 20 nM Bcl2, 5 nM Flu-BIM, 1 h incubation, read-out: Bcl-2 w.t. (FP).

Take `CC1(C)CCC(CN2CCN(c3ccc(C(=O)NS(=O)(=O)c4ccc(NC[C@H]5COCCO5)c([N+](=O)[O-])c4)c(Oc4cnc5[nH]ccc5c4)c3)CC2)=C(c2cc(C(=O)Nc3ccccc3)cs2)C1` [Example 17, (S)-5-(2-((4-(4-(((4-(((1,4-dioxan-2-yl)methyl)amino)-3-nitrophenyl)sulfonyl)carbamoyl)-3-((1H-pyrrolo[2,3-b]pyridin-5-yl)oxy)phenyl)piperazin-1-yl)methyl)-5,5-dimethylcyclohex-1-en-1-yl)-N-phenylthiophene-3-carboxamide]: the IC50 in the experiment on MV-4-11 cells was 262 nM; in the experiment with RS4; 11Bcl-2-G101V cells it was 4250 nM; at Bcl-2 WT, 30.9 nM.

Regarding `CC1(C)CCC(CN2CCN(c3ccc(C(=O)NS(=O)(=O)c4ccc(NC[C@H]5CC[C@](C)(O)CC5)c([N+](=O)[O-])c4)c(Oc4cnc5[nH]ccc5c4)c3)CC2)=C(c2cc(-c3c(F)cc(C(C)(C)CO)cc3F)cs2)C1` [Example 74, 2-((1H-pyrrolo[2,3-b]pyridin-5-yl)oxy)-4-(4-((2-(4-(2,6-difluoro-4-(1-hydroxy-2-methylpropan-2-yl)phenyl)thiophen-2-yl)-4,4-dimethylcyclohex-1-en-1-yl)methyl)piperazin-1-yl)-N-((4-((((1r,4r)-4-hydroxy-4-methylcyclohexyl)methyl)amino)-3-nitrophenyl)sulfonyl)benzamide], the IC50 in the experiment on MV-4-11 cells was determined as 52 nM; in the experiment on RS4; 11Bcl-2-G101V cells it was 230 nM; at Bcl-2 WT (setting [1]) it was 38.5 nM.

For the compound `CC1(C)CCC(CN2CCN(c3ccc(C(=O)NS(=O)(=O)c4ccc(NCC5CCOCC5)c([N+](=O)[O-])c4)c(Oc4cnc5[nH]ccc5c4)c3)CC2)=C(c2csc(C(F)(F)F)c2)C1` [Example 3, 2-((1H-pyrrolo[2,3-b]pyridin-5-yl)oxy)-4-(4-((4,4-dimethyl-2-(5-(trifluoromethyl)thiophen-3-yl)cyclohex-1-en-1-yl)methyl)piperazin-1-yl)-N-((3-nitro-4-(((tetrahydro-2H-pyran-4-yl)methyl)amino)phenyl)sulfonyl)benzamide], the IC50 in the experiment with MV-4-11 cells is 214 nM; in the experiment on RS4; 11Bcl-2-G101V cells, 3800 nM; on Bcl-2 WT (setting [1]), 27.7 nM.

In the case of `CC1(C)CCC(CN2CCN(c3ccc(C(=O)NS(=O)(=O)c4ccc(NC[C@H]5CC[C@](C)(O)CC5)c([N+](=O)[O-])c4)c(Oc4cnc5[nH]ccc5c4)c3)CC2)=C(c2cc(-c3ccc(F)cc3)cs2)C1` [Example 37, 2-((1H-pyrrolo[2,3-b]pyridin-5-yl)oxy)-4-(4-((2-(4-(4-fluorophenyl)thiophen-2-yl)-4,4-dimethylcyclohex-1-en-1-yl)methyl)piperazin-1-yl)-N-((4-((((1r,4r)-4-hydroxy-4-methylcyclohexyl)methyl)amino)-3-nitrophenyl)sulfonyl)benzamide], the IC50 in the experiment on MV-4-11 cells was 11 nM; in the experiment with RS4; 11Bcl-2-G101V cells, 290 nM; on Bcl-2 WT (setting [1]), 20.5 nM.

As to `CC1(C)CCC(CN2CCN(c3ccc(C(=O)NS(=O)(=O)c4ccc(NC[C@H]5COCCO5)c([N+](=O)[O-])c4)c(Oc4cnc5[nH]ccc5c4)c3)CC2)=C(c2cc(-c3ccc(Cl)cc3F)cs2)C1` [Example 44, (S)—N-((4-(((1,4-dioxan-2-yl)methyl)amino)-3-nitrophenyl)sulfonyl)-2-((1H-pyrrolo[2,3-b]pyridin-5-yl)oxy)-4-(4-((2-(4-(4-chloro-2-fluorophenyl)thiophen-2-yl)-4,4-dimethylcyclohex-1-en-1-yl)methyl)piperazin-1-yl)benzamide], the results for the IC50 with MV-4-11 cells, with RS4; 11Bcl-2-G101V cells and on Bcl-2 WT (setting [1]) were 31 nM, 830 nM and 31 nM, respectively.

With `[2H]C([2H])([2H])C(O)(c1cc(F)c(-c2csc(C3=C(CN4CCN(c5ccc(C(=O)NS(=O)(=O)c6ccc(NC[C@H]7CC[C@](C)(O)CC7)c([N+](=O)[O-])c6)c(Oc6cnc7[nH]ccc7c6)c5)CC4)CCC(C)(C)C3)c2)c(F)c1)C([2H])([2H])[2H]` [Example 68, 2-((1H-pyrrolo[2,3-b]pyridin-5-yl)oxy)-4-(4-((2-(4-(2,6-difluoro-4-(2-hydroxypropan-2-yl-1,1,1,3,3,3-d6)phenyl)thiophen-2-yl)-4,4-dimethylcyclohex-1-en-1-yl)methyl)piperazin-1-yl)-N-((4-((((1r,4r)-4-hydroxy-4-methylcyclohexyl)methyl)amino)-3-nitrophenyl)sulfonyl)benzamide], the figures for the IC50 with MV-4-11 cells, in the experiment with RS4; 11Bcl-2-G101V cells and at Bcl-2 WT (setting [1]) were 9 nM, 21 nM and 23.2 nM, respectively.

On to `CC1(C)CCC(CN2CCN(c3ccc(C(=O)NS(=O)(=O)c4ccc(NC[C@H]5CC[C@](C)(O)CC5)c([N+](=O)[O-])c4)c(Oc4cnc5[nH]ccc5c4)c3)CC2)=C(c2cc(-c3ccc(C(C)(O)C(F)(F)F)cc3F)cs2)C1` (stereo partly drawn) [Example 78, 2-((1H-pyrrolo[2,3-b]pyridin-5-yl)oxy)-4-(4-((2-(4-(2-fluoro-4-(1,1,1-trifluoro-2-hydroxypropan-2-yl)phenyl)thiophen-2-yl)-4,4-dimethylcyclohex-1-en-1-yl)methyl)piperazin-1-yl)-N-((4-((((1r,4r)-4-hydroxy-4-methylcyclohexyl)methyl)amino)-3-nitrophenyl)sulfonyl)benzamide], for which the IC50 in the experiment on MV-4-11 cells is 59 nM; in the experiment with RS4; 11Bcl-2-G101V cells, 580 nM; at Bcl-2 WT (setting [1]), 16.8 nM.

In the case of `Cc1cscc1C1=C(CN2CCN(c3ccc(C(=O)NS(=O)(=O)c4ccc(NCC5CCOCC5)c([N+](=O)[O-])c4)c(Oc4cnc5[nH]ccc5c4)c3)CC2)CCC(C)(C)C1` [Example 2, 2-((1H-pyrrolo[2,3-b]pyridin-5-yl)oxy)-4-(4-((4,4-dimethyl-2-(4-methylthiophen-3-yl)cyclohex-1-en-1-yl)methyl)piperazin-1-yl)-N-((3-nitro-4-(((tetrahydro-2H-pyran-4-yl)methyl)amino)phenyl)sulfonyl)benzamide], the values for the IC50 with MV-4-11 cells, in the experiment on RS4; 11Bcl-2-G101V cells and at Bcl-2 WT (setting [1]) were 28 nM, 1300 nM and 15.9 nM, respectively.

Regarding `CC1(C)CCC(CN2CCN(c3ccc(C(=O)NS(=O)(=O)c4ccc(NCC5CCOCC5)c([N+](=O)[O-])c4)c(Oc4cnc5[nH]ccc5c4)c3)CC2)=C(c2csc(CN3CCOCC3)c2)C1` [Example 21, 2-((1H-pyrrolo[2,3-b]pyridin-5-yl)oxy)-4-(4-((4,4-dimethyl-2-(5-(morpholinomethyl)thiophen-3-yl)cyclohex-1-en-1-yl)methyl)piperazin-1-yl)-N-((3-nitro-4-(((tetrahydro-2H-pyran-4-yl)methyl)amino)phenyl)sulfonyl)benzamide], the IC50 in the experiment with MV-4-11 cells was found to be 323 nM; in the experiment with RS4; 11Bcl-2-G101V cells, 3790 nM; on Bcl-2 WT (setting [1]), 27.1 nM.

Consider `CC1(C)CCC(CN2CCN(c3ccc(C(=O)NS(=O)(=O)c4ccc(NC[C@H]5COCCO5)c([N+](=O)[O-])c4)c(Oc4cnc5[nH]ccc5c4)c3)CC2)=C(c2cc(-c3ccc(F)cc3F)cs2)C1` [Example 42, (S)—N-((4-(((1,4-dioxan-2-yl)methyl)amino)-3-nitrophenyl)sulfonyl)-2-((1H-pyrrolo[2,3-b]pyridin-5-yl)oxy)-4-(4-((2-(4-(2,4-difluorophenyl)thiophen-2-yl)-4,4-dimethylcyclohex-1-en-1-yl)methyl)piperazin-1-yl)benzamide], for which the IC50 amounted to 26 nM with MV-4-11 cells, 480 nM with RS4; 11Bcl-2-G101V cells and 38.7 nM on Bcl-2 WT (setting [1]).

For the compound `CC1(C)CCC(CN2CCN(c3ccc(C(=O)NS(=O)(=O)c4ccc(NC[C@H]5COCCO5)c([N+](=O)[O-])c4)c(Oc4cnc5[nH]ccc5c4)c3)CC2)=C(c2cc(CN3CCN4CCOC[C@H]4C3)cs2)C1` [Example 30, N-((4-((((S)-1,4-dioxan-2-yl)methyl)amino)-3-nitrophenyl)sulfonyl)-2-((1H-pyrrolo[2,3-b]pyridin-5-yl)oxy)-4-(4-((2-(4-(((R)-hexahydropyrazino[2,1-c][1,4]oxazin-8(1H)-yl)methyl)thiophen-2-yl)-4,4-dimethylcyclohex-1-en-1-yl)methyl)piperazin-1-yl)benzamide], the IC50 in the experiment with MV-4-11 cells worked out at 564 nM; in the experiment on RS4; 11Bcl-2-G101V cells, 1440 nM; at Bcl-2 WT (setting [1]), 23.6 nM.

For `CN(C)c1ccccc1-c1csc(C2=C(CN3CCN(c4ccc(C(=O)NS(=O)(=O)c5ccc(NC[C@H]6COCCO6)c([N+](=O)[O-])c5)c(Oc5cnc6[nH]ccc6c5)c4)CC3)CCC(C)(C)C2)c1` [Example 58, (S)—N-((4-(((1,4-dioxan-2-yl)methyl)amino)-3-nitrophenyl)sulfonyl)-2-((1H-pyrrolo[2,3-b]pyridin-5-yl)oxy)-4-(4-((2-(4-(2-(dimethylamino)phenyl)thiophen-2-yl)-4,4-dimethylcyclohex-1-en-1-yl)methyl)piperazin-1-yl)benzamide], the IC50 with MV-4-11 cells is 178 nM; in the experiment with RS4; 11Bcl-2-G101V cells it was 3050 nM; on Bcl-2 WT (setting [1]) it was 20.1 nM.

Take `Cc1sccc1C1=C(CN2CCN(c3ccc(C(=O)NS(=O)(=O)c4ccc(NCC5CCOCC5)c([N+](=O)[O-])c4)c(Oc4cnc5[nH]ccc5c4)c3)CC2)CCC(C)(C)C1` [Example 1, 2-((1H-pyrrolo[2,3-b]pyridin-5-yl)oxy)-4-(4-((4,4-dimethyl-2-(2-methylthiophen-3-yl)cyclohex-1-en-1-yl)methyl)piperazin-1-yl)-N-((3-nitro-4-(((tetrahydro-2H-pyran-4-yl)methyl)amino)phenyl)sulfonyl)benzamide]: the IC50 in the experiment on MV-4-11 cells was 27 nM; in the experiment with RS4; 11Bcl-2-G101V cells it was 1170 nM; on Bcl-2 WT (setting [1]) it was 15.7 nM.

Take `CC1(C)CCC(CN2CCN(c3ccc(C(=O)NS(=O)(=O)c4ccc(NC[C@H]5COCCO5)c([N+](=O)[O-])c4)c(Oc4cnc5[nH]ccc5c4)c3)CC2)=C(c2cc(-c3ccc(F)c(F)c3)cs2)C1` [Example 50, (S)—N-((4-(((1,4-dioxan-2-yl)methyl)amino)-3-nitrophenyl)sulfonyl)-2-((1H-pyrrolo[2,3-b]pyridin-5-yl)oxy)-4-(4-((2-(4-(3,4-difluorophenyl)thiophen-2-yl)-4,4-dimethylcyclohex-1-en-1-yl)methyl)piperazin-1-yl)benzamide]: the IC50 in the experiment on MV-4-11 cells was found to be 65 nM; in the experiment on RS4; 11Bcl-2-G101V cells it was 1950 nM; on Bcl-2 WT (setting [1]) it was 30.4 nM.
